Experimental data taken from PubChem BioAssay AID1963959 (Molecular Pharmacology Branch, DTP, NCI, 2024).

Test system: T-47D spheroids with HUVEC/MSC, viability
Test: Anticancer human tumor T-47D cell line growth inhibition [PI3K];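 note: spheroids exposed to agents for seven days before reading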;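 for viability, T/C: percent of DMSO vehicle control luminescence so 100% = untreated growth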
Details: for IC50: curve of first compound; for viability, T/C: stronger effect = lower value
Procedure, shortened: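 Combination activity was assessed by viability in multicellular tumor spheroids carrying HUVEC and MSC components. Agents were tested with PI3K inhibitors from a Cmax-based top dose (or 10 microM) downward in half-log increments.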

[1] = second compound 0.00316 µM, first compound 0.0316 µM
[2] = second compound 0.00316 µM, first compound 0.1 µM
[3] = second compound 0.00316 µM, first compound 0.316 µM
[4] = second compound 0.00316 µM, first compound 1 µM
[5] = second compound 0.00316 µM, first compound 3.16 µM
[6] = second compound 0.00316 µM, first compound 10 µM
[7] = second compound 0.01 µM, first compound 0.0316 µM
[8] = second compound 0.01 µM, first compound 0.1 µM
[9] = second compound 0.01 µM, first compound 0.316 µM
[10] = second compound 0.01 µM, first compound 1 µM
[11] = second compound 0.01 µM, first compound 3.16 µM
[12] = second compound 0.01 µM, first compound 10 µM
[13] = second compound 0.0316 µM, first compound 0.0316 µM
[14] = second compound 0.0316 µM, first compound 0.1 µM
[15] = second compound 0.0316 µM, first compound 0.316 µM
[16] = second compound 0.0316 µM, first compound 1 µM
[17] = second compound 0.0316 µM, first compound 3.16 µM
[18] = second compound 0.0316 µM, first compound 10 µM
[19] = second compound 0.1 µM, first compound 0.0316 µM
[20] = second compound 0.1 µM, first compound 0.1 µM
[21] = second compound 0.1 µM, first compound 0.316 µM
[22] = second compound 0.1 µM, first compound 1 µM
[23] = second compound 0.1 µM, first compound 3.16 µM
[24] = second compound 0.1 µM, first compound 10 µM
[25] = second compound 0.316 µM, first compound 0.0316 µM
[26] = second compound 0.316 µM, first compound 0.1 µM
[27] = second compound 0.316 µM, first compound 0.316 µM
[28] = second compound 0.316 µM, first compound 1 µM
[29] = second compound 0.316 µM, first compound 3.16 µM
[30] = second compound 0.316 µM, first compound 10 µM
[31] = second compound 1 µM, first compound 0.0316 µM
[32] = second compound 1 µM, first compound 0.1 µM
[33] = second compound 1 µM, first compound 0.316 µM
[34] = second compound 1 µM, first compound 1 µM
[35] = second compound 1 µM, first compound 3.16 µM
[36] = second compound 1 µM, first compound 10 µM

Work on `Cn1ncc(Cl)c1-c1cc(C(=O)NC(CN)Cc2cccc(F)c2)sc1Cl` (stereo unspecified) + COc1c(OCCCN2CCOCC2)ccc2c3n(c(=NC(=O)c4cnc(N)nc4)nc12)CCN3 yielded an IC50 (second compound 0.00316 µM) of over 10 µM, an IC50 (second compound 0.01 µM) of over 10 µM and an IC50 (second compound 0.0316 µM) of over 10 µM. The IC50 (second compound 0.1 µM) was under 0.0316 µM, the IC50 (second compound 0.316 µM) was under 0.0316 µM and the IC50 (second compound 1 µM) was under 0.0316 µM. The viability, T/C [1] was 105%, the viability, T/C [2] was 102% and the viability, T/C [3] was 82.3%. The viability, T/C [4] was 77.4%, the viability, T/C [5] was 66.2% and the viability, T/C [6] was 77.7%. For the same compound, the viability, T/C [7] was 108%, the viability, T/C [8] was 99.8% and the viability, T/C [9] was 80.5%. It also gave a viability, T/C [10] of 70.3%, a viability, T/C [11] of 70% and a viability, T/C [12] of 77.7%. The viability, T/C [13] was 94.4%, the viability, T/C [14] was 70.6% and the viability, T/C [15] was 61.5%. It also gave a viability, T/C [16] of 65%, a viability, T/C [17] of 65.1% and a viability, T/C [18] of 73.2%. For the same compound, the viability, T/C [19] was 48.8%, the viability, T/C [20] was 46.5% and the viability, T/C [21] was 39.4%. The viability, T/C [22] was 39.2%, the viability, T/C [23] was 55.7% and the viability, T/C [24] was 48.7%. The viability, T/C [25] was 17.2%, the viability, T/C [26] was 20.4% and the viability, T/C [27] was 19.1%. The viability, T/C [28] was 19.6%, the viability, T/C [29] was 24.3% and the viability, T/C [30] was 39.5%. For the same compound, the viability, T/C [31] was 7.39%, the viability, T/C [32] was 7.86% and the viability, T/C [33] was 6.72%. For the same compound, the viability, T/C [34] was 6.88%, the viability, T/C [35] was 15.6% and the viability, T/C [36] was 10.9%.
With `Cn1nccc1Nc1nccc(-c2ccn(C(CO)c3ccc(Cl)c(F)c3)c(=O)c2)n1` (stereo unspecified) + COc1c(OCCCN2CCOCC2)ccc2c3n(c(=NC(=O)c4cnc(N)nc4)nc12)CCN3 the IC50 (second compound 0.00316 µM) was over 10 µM, the IC50 (second compound 0.01 µM) was over 10 µM and the IC50 (second compound 0.0316 µM) was over 10 µM. For the same compound, the IC50 (second compound 0.1 µM) was under 0.0316 µM, the IC50 (second compound 0.316 µM) was under 0.0316 µM and the IC50 (second compound 1 µM) was under 0.0316 µM. It also gave a viability, T/C [1] of 107%, a viability, T/C [2] of 94% and a viability, T/C [3] of 94.2%. The viability, T/C [4] was 102%, the viability, T/C [5] was 99.9% and the viability, T/C [6] was 104%. It also gave a viability, T/C [7] of 104%, a viability, T/C [8] of 88% and a viability, T/C [9] of 107%. For the same compound, the viability, T/C [10] was 83.6%, the viability, T/C [11] was 103% and the viability, T/C [12] was 86.4%. It also gave a viability, T/C [13] of 70%, a viability, T/C [14] of 72.3% and a viability, T/C [15] of 70.1%. For the same compound, the viability, T/C [16] was 77%, the viability, T/C [17] was 67.5% and the viability, T/C [18] was 69.6%. For the same compound, the viability, T/C [19] was 40.9%, the viability, T/C [20] was 39.7% and the viability, T/C [21] was 38.3%. The viability, T/C [22] was 48.5%, the viability, T/C [23] was 46.6% and the viability, T/C [24] was 48.2%. It also gave a viability, T/C [25] of 20.7%, a viability, T/C [26] of 20.4% and a viability, T/C [27] of 17.8%. For the same compound, the viability, T/C [28] was 24.5%, the viability, T/C [29] was 20.7% and the viability, T/C [30] was 22.7%. For the same compound, the viability, T/C [31] was 8.45%, the viability, T/C [32] was 6.31% and the viability, T/C [33] was 9.37%. It also gave a viability, T/C [34] of 7.73%, a viability, T/C [35] of 9.27% and a viability, T/C [36] of 7.43%.
`Cn1ncnc1[C@H]1c2n[nH]c(=O)c3cc(F)cc(c23)N[C@@H]1c1ccc(F)cc1` + COc1c(OCCCN2CCOCC2)ccc2c3n(c(=NC(=O)c4cnc(N)nc4)nc12)CCN3 was tested, and the IC50 (second compound 0.00316 µM) was over 0.1 µM, the IC50 (second compound 0.01 µM) was over 0.1 µM and the IC50 (second compound 0.0316 µM) was over 0.1 µM. It also gave an IC50 (second compound 0.1 µM) of under 0.000316 µM, an IC50 (second compound 0.316 µM) of under 0.000316 µM and an IC50 (second compound 1 µM) of under 0.000316 µM. For the same compound, the viability, T/C (second compound 0.00316 µM, first compound 0.000316 µM) was 102%, the viability, T/C (second compound 0.00316 µM, first compound 0.001 µM) was 87.4% and the viability, T/C (second compound 0.00316 µM, first compound 0.00316 µM) was 112%. It also gave a viability, T/C (second compound 0.00316 µM, first compound 0.01 µM) of 104%, a viability, T/C [1] of 109% and a viability, T/C [2] of 101%. The viability, T/C (second compound 0.01 µM, first compound 0.000316 µM) was 114%, the viability, T/C (second compound 0.01 µM, first compound 0.001 µM) was 83.9% and the viability, T/C (second compound 0.01 µM, first compound 0.00316 µM) was 93.7%. For the same compound, the viability, T/C (second compound 0.01 µM, first compound 0.01 µM) was 79.3%, the viability, T/C [7] was 99.5% and the viability, T/C [8] was 94.1%. For the same compound, the viability, T/C (second compound 0.0316 µM, first compound 0.000316 µM) was 72.9%, the viability, T/C (second compound 0.0316 µM, first compound 0.001 µM) was 72.8% and the viability, T/C (second compound 0.0316 µM, first compound 0.00316 µM) was 85%. It also gave a viability, T/C (second compound 0.0316 µM, first compound 0.01 µM) of 71.4%, a viability, T/C [13] of 75.1% and a viability, T/C [14] of 64.8%. The viability, T/C (second compound 0.1 µM, first compound 0.000316 µM) was 40.9%, the viability, T/C (second compound 0.1 µM, first compound 0.001 µM) was 47.6% and the viability, T/C (second compound 0.1 µM, first compound 0.00316 µM) was 41.2%. It also gave a viability, T/C (second compound 0.1 µM, first compound 0.01 µM) of 34.1%, a viability, T/C [19] of 40.7% and a viability, T/C [20] of 39%. For the same compound, the viability, T/C (second compound 0.316 µM, first compound 0.000316 µM) was 18.9%, the viability, T/C (second compound 0.316 µM, first compound 0.001 µM) was 20.8% and the viability, T/C (second compound 0.316 µM, first compound 0.00316 µM) was 15.2%. For the same compound, the viability, T/C (second compound 0.316 µM, first compound 0.01 µM) was 17.1%, the viability, T/C [25] was 14.8% and the viability, T/C [26] was 15.1%. For the same compound, the viability, T/C (second compound 1 µM, first compound 0.000316 µM) was 5.24%, the viability, T/C (second compound 1 µM, first compound 0.001 µM) was 6.61% and the viability, T/C (second compound 1 µM, first compound 0.00316 µM) was 7.38%. The viability, T/C (second compound 1 µM, first compound 0.01 µM) was 7.19%, the viability, T/C [31] was 5.03% and the viability, T/C [32] was 6.71%.
